Results reported in US4151280A, “Pyrroloquinoxalines” (Roussel Uclaf, priority 1977, dated 1979).
Like-named read-outs stand apart in the source and are kept apart here.

Test system: passive cutaneous anaphylaxis
Experiment: Passive cutaneous anaphylaxis (PCA) in rats;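 also: male rats, challenged with antigen plus Evans blue three days post sensitization, killed 30 min later, dorsal skin bluing graded on a five point scale, summed over four sites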
Assay type: in vivo
Details: dosed immediately prior to intravenous challenge, rats sensitized intradermally with anti-ovalbumen antiserum; for ED50: Rattus norvegicus
[1] = po, read-out: ED 50 p.o. (dose of drug giving 50% inhibition), p.o.
[2] = read-out: ED 50 i.v. (dose of drug giving 50% inhibition), i.v.

Protocol: Cutaneous anaphylaxis can be induced in rats by intradermal (ID) sensitization with antiserum followed three days later by systemic challenge with antigen. Evans blue dye injected with the antigen is used as a marker to assess the severity of the local response. […] Brown: Pergamon Press: --male rats weighing 180-220 grams are used in groups of seven.
Preparation of Antigen for Sensitization (Alum precipitated ovalbumen)
Wash 120 grams of Al(OH)3 in 140 ml of saline (use of a macerater facilitates mixing).
Centrifuge at 3,000 r.p.m. for about 10 minutes.
Resuspend the precipiate with 300 ml of albumen egg powder (1.3 mg/ml) in saline and allow to stand for 30 minutes.
Centrifuge at 3,000 r.p.m. for 10 minutes.
Weigh the wet precipitate and to each gram weight add 1 ml of saline. Store in refrigerator (Quantity sufficient for 60 rats for a 3 day sensitization program).
Preparation of Antiserum (anti-ovalbumen)
1 ml of the alum precipitated ovalbumen was injected subcutaneously into rats weighing 180-200 grams on days 0,2,4. The rats were bled on day 14 either by cardiac puncture or via the dorsal abdominal aorta. Equal quantities of serum from each animal were pooled and thoroughly mixed and 2 ml aliquots were stored at -20° C. in plastic tubes.
The animals were then left for a period of three days to develop sensitization.
The injections were speeded up by using an automatic 1 ml self-filling glass syringe. The "challenged" rats were killed after 30 minutes, usually pithed) and their skin on the dorsal surface was removed. The degree and area of blueing, proportional to the anaphylactic reaction was assessed on a five point scoring system.
Total scores for sites 1,2,3 and 4=X
2. mean value of X for each group=X

Compound	ED50 [1] [mg/kg]	ED50 [2] [mg/kg]	ED 50 i.v. (dose of drug giving 50% inhibition) (i.v.) [mg/kg]	ED 50 p.o. (dose of drug giving 50% inhibition) (p.o.) [mg/kg]
CCCCn1c(=O)c2cc(C(=O)O)cn2c2cc(Cl)c(Cl)cc21 [Example 22, 5-n-butyl-7,8-dichloro-4,5-dihydro-4-oxo-pyrrolo[1,2-a]quinoxaline-2-carboxylic acid]	0.117	0.014		
Cn1c(=O)c2cc(C(=O)O)cn2c2ccccc21 [Example 12, 5-methyl-4,5-dihydro-4-oxo-pyrrolo[1,2-a]quinoxaline-2-carboxylic acid]	0.54	0.089		
CCCCn1c(=O)c2cc(C(=O)OCC)cn2c2ccccc21 [Example 5, ethyl 5-n-butyl-4,5-dihydro-4-oxo-pyrrolo[1,2-a]quinoxaline-2-carboxylate]	4.1			
C=CCn1c(=O)c2cc(C(=O)O)cn2c2ccccc21 [Example 19, 5-allyl-4,5-dihydro-4-oxo-pyrrolo[1,2-a]quinoxaline-2-carboxylic acid]	0.28	0.035		
CCn1c(=O)c2cc(C(=O)O)cn2c2ccccc21 [Example 14, 5-ethyl-4,5-dihydro-4-oxo-pyrrolo[1,2-a]quinoxaline-2-carboxylic acid]	0.035	0.026		
CCCCn1c(=O)c2cc(C(=O)O)cn2c2cc(Cl)ccc21 [Example 21, 5-n-butyl-8-chloro-4,5-dihydro-4-oxo-pyrrolo[1,2-a]quinoxaline-2-carboxylic acid]	0.114	0.019		
CC(C)n1c(=O)c2cc(C(=O)O)cn2c2ccccc21 [Example 18, 5-isopropyl-4,5-dihydro-4-oxo-pyrrolo[1,2-a]quinoxaline-2-carboxylic acid]		0.85		
CCCn1c(=O)c2cc(C(=O)O)cn2c2ccccc21 [Example 15, 5-n-propyl-4,5-dihydro-4-oxo-pyrrolo[1,2-a]quinoxaline-2-carboxylic acid]	0.032	0.019		
CCn1c(=O)c2cc(C(=O)O)cn2c2cc(Cl)ccc21 [24(d), 8-chloro-5-ethyl-4,5-dihydro-4-oxo-pyrrolo[1,2-a]quinoxaline-2-carboxylic acid]	0.29	0.035		
O=C(O)c1cc2c(=O)n(-c3ccccc3)c3ccccc3n2c1 [Example 13, 5-phenyl-4,5-dihydro-4-oxo-pyrrolo[1,2-a]quinoxaline-2-carboxylic acid]	19	1.57		
CCCCCn1c(=O)c2cc(C(=O)O)cn2c2ccccc21 [Example 17, 5-n-pentyl-4,5-dihydro-4-oxo-pyrrolo[1,2-a]quinoxaline-2-carboxylic acid]	0.31	0.087		
5-n-butyl-7-(and 8)-nitro-4,5-dihydro-4-oxo-pyrrolo[1,2-a]quinoxaline-2-carboxylic acid [23(c)]			0.025	0.26
CCCCn1c(=O)c2cc(C(=O)O)cn2c2ccccc21 [Example 16, 5-n-butyl-4,5-dihydro-4-oxo-pyrrolo[1,2-a]quinoxaline-2-carboxylic acid]	0.058	0.019		
O=C(O)c1cc2c(=O)n(C3CCCC3)c3ccccc3n2c1 [Example 20, 5-cyclopentyl-4,5-dihydro-4-oxo-pyrrolo[1,2-a]quinoxaline-2-carboxylic acid]		0.37		
CCOC(=O)c1cc2c(=O)n(C)c3ccccc3n2c1 [Example 1, ethyl 5-methyl-4,5-dihydro-4-oxo-pyrrolo[1,2-a]quinoxaline-2-carboxylate]	7			
